From patent publication US9872493B2, “Method for promoting plant growth” (SUMITOMO CHEMICAL COMPANY, LIMITED, priority 2012, dated 2018)

Columns and labels:
[1] = system: Rice (Variety: Nipponbare); experiment: Test for evaluating promotion of root growth by hydroponics of rice (Test Examples 1-3); format: in vivo
Protocol: Rice (Variety: Nipponbare)
(§1) A DMSO solution, which contained one of the compounds 14, 18, 21, 23, 26, 28, 29, 30, 35, 36, 37, 39 and 40 of the present invention at a concentration of 100,000 ppm, was added to Hoagland hydroponic solution (Hoagland and Arnon, California Agricultural Experiment Station 1950 Circular 347 pp. 34) of ¼-fold concentration at a volume ratio of 1/10,000. In this manner, hydroponic solutions containing one of the compounds 14, 18, 21, 23, 26, 28, 29, 30, 35, 36, 37, 39 and 40 of the present invention at 10 ppm were prepared respectively. As an untreated control plot, a hydroponic solution obtained by adding DMSO to Hoagland hydroponic solution of ¼-fold concentration at a volume ratio of 1/10,000 was used.
Rice seeds were soaked in a 1% aqueous sodium hypochlorite solution for 10 minutes, then soaked in a 70% ethanol solution for surface sterilization, and then washed with distilled water. The sterilized seeds were soaked in a hydroponic solution containing the test compound described above at 10 ppm and incubated in a dark place for 3 days at 28° C. to perform treatment for hastening germination.
Thereafter, 30 ml of hydroponic solution containing the test compound at 10 ppm was dispensed in a plastic tube (diameter of 20 mm×height of 113 mm) of which the side was covered with cardboard to block light. A float prepared using a styrene board and vinyl mesh was floated, and the rice seeds that had undergone the treatment for hastening germination were placed on the float on the surface of the hydroponic solution. The seeds were cultivated for 3 days at 26° C., an illuminance of 4,000 lux of the top surface of the tube, a humidity of 50%, and a day length of 16 hours.
The nursery plants of rice obtained after cultivating were measured in terms of the length of seminal root by using WinRHIZO system (manufactured by Regent Instruments Inc). For each test plot, an average of the measured values of the seminal root of 4 or 5 individuals were determined.
as §1, with “compounds 7, 8, 9, 10, 12, 17, 20,” for “compounds 14, 18,”, “21, 25, 27,” for “21, 23, 26,”, “30, 34,” for “30,”, “37, 38,” for “37,”, “of 10,000” for “of 100,000”, “at 1” for “at 10”
Rice seeds were soaked in a 1% aqueous sodium hypochlorite solution for 10 minutes, then soaked in a 70% ethanol solution for surface sterilization, and then washed with distilled water. The sterilized seeds were soaked in a hydroponic solution containing the test compound described above at 1 ppm and incubated in a dark place for 3 days at 28° C. to perform treatment for hastening germination.
Thereafter, 30 ml of hydroponic solution containing the test compound at 1 ppm was dispensed in a plastic tube (diameter of 20 mm×height of 113 mm) of which the side was covered with cardboard to block light. A float prepared using a styrene board and vinyl mesh was floated, and the rice seeds that had undergone the treatment for hastening germination were placed on the float on the surface of the hydroponic solution. The seeds were cultivated for 3 days at 26° C., an illuminance of 4,000 lux of the top surface of the tube, a humidity of 50%, and a day length of 16 hours.
The nursery plants of rice obtained after cultivation were measured in terms of the length of seminal root by using WinRHIZO system (manufactured by Regent Instruments Inc). […]

[2] = system: Nicotiana benthamiana; experiment: Test for evaluating growth promotion under low-temperature stress by hydroponics of Nicotiana benthamiana (Test Examples 4-6); format: in vivo; conditions: 7 days at 1.5±1.0° C. low-temperature stress, then 3 days at 22° C., green leaf area vs untreated control, read-out: value of a relative leaf area (equation (1)); for relative green leaf area after low-temperature stress at 0.1 ppm: compound at 0.1 ppm; for relative green leaf area after low-temperature stress at 10 ppm: compound at 10 ppm; for relative green leaf area after low-temperature stress at 1 ppm: compound at 1 ppm
Protocol: A DMSO solution, which contained one of the compounds 5, 14, 22, 23, 24, 25, 26, 28, 30, 31, 32, 33, 34, 35, 38, 39 and 40 of the present invention at a concentration of 10,000 ppm, was prepared. The DMSO solution of the compound of the present invention was added at a volume ratio of 1/1,000 to the Murashige•Scoog medium of a ½-fold concentration (a medium containing 2.3 g of mixed salts (manufactured by Wako Pure Chemical Industries, Ltd.), 200 mg of Myo-inositol (manufactured by Sigma-Aldrich Co. LLC.), 2 mg of nicotinic acid (manufactured by Wako Pure Chemical Industries, Ltd.), 2 mg of pyridoxine hydrochloride (manufactured by Wako Pure Chemical Industries, Ltd.), 20 mg of thiamine hydrochloride (manufactured by Wako Pure Chemical Industries, Ltd.), 20 g of sucrose (manufactured by Wako Pure Chemical Industries, Ltd.), and 1 g of MES (manufactured by DOJINDO LABORATORIES) per 1 L of water and having pH adjusted to 5.8), thereby preparing a medium containing the compound of the present invention at a concentration of 10 ppm.
Seeds of Nicotiana benthamiana were seeded in the 5 μL of the medium and cultured overnight at 22° C. Thereafter, 45 μL of the medium containing the compound of the present invention at a concentration of 10 ppm was added thereto, and the seeds are cultivated for 7 days at 22° C., an illuminance of 4,000 lux, and a day length of 16 hours, thereby the nursery plants raised from the Nicotiana benthamiana were treated with the compound.
Moreover, instead of the above medium a test plot, which was obtained by performing the same treatment by using a medium prepared by adding DMSO to the Murashige•Scoog medium of ½-fold concentration at a volume ratio of 1/1,000, was used as a control plot not treated with the compound.
The nursery plants of the Nicotiana benthamiana treated with the compound were subjected to low-temperature treatment by being cultivated for 7 days at 1.5±1.0° C., an illuminance of 2,000 lux, and a day length of 16 hours.
The nursery plants of the Nicotiana benthamiana having undergone the low-temperature stress treatment were cultivated for 3 days at 22° C., an illuminance of 4,000 lux, and a day length of 16 hours. Thereafter, the area of green leaf was quantified by Scanalyzer HTS (manufactured by LemnaTec GmbH). Moreover, the value of the control plot not treated with the compound that had not yet been subjected to the low-temperature stress treatment was measured in the same manner. A value of a relative leaf area was calculated based on the following equation (1), and if the value of a relative leaf area was 5 or greater, the compound was evaluated to have a mitigating effect. As a result of the evaluation, it was confirmed that when the plant was treated with one of the compounds 5, 14, 22, 23, 24, 25, 26, 28, 30, 31, 32, 33, 34, 35, 38, 39 and 40 of the present invention at 10 ppm, the value of a relative leaf area was 5 or greater, compared to the area of green leaf of the control plot not treated with compound. Accordingly, it was confirmed that the treatment using the compound of the present invention brings about a growth promotion effect. Relative leaf area=100*(a green area of a plot treated with the compound of the present invention−a green area of a control plot not treated with the compound of the present invention)/(a green area of a control plot not treated with the compound of the present invention that has not yet been subjected to low-temperature stress treatment−a green area of a control plot not treated with the compound of the present invention) Equation (1): […]
A DMSO solution, which contained one of the compounds 6, 7, 8, 11, 12, 15, 19, 23, 24, 25, 28, 30, 31, 33, 34, 36, 37, 38 and 39 of the present invention at a concentration of 1,000 ppm, was prepared. […]

| Compound | length of seminal root compared with the untreated control plot (in words) ([1]; 0.1 ppm) | length of seminal root compared with the untreated control plot (in words) ([1]; 1 ppm) | relative green leaf area after low-temperature stress at 0.1 ppm [2] [%] | length of seminal root compared with the untreated control plot (in words) ([1]; 10 ppm) | relative green leaf area after low-temperature stress at 10 ppm [2] [%] | relative green leaf area after low-temperature stress at 1 ppm [2] [%] |
| --- | --- | --- | --- | --- | --- | --- |
| Cc1sc2ccccc2c1C(=O)O [Compound 20] | obviously longer | obviously longer | ≥ 5 |  |  |  |
| COC(=O)c1csc2ccc(C(F)(F)F)cc12 [Compound 14, methyl 5-trifluoromethylbenzo[b]thiophene-3-carboxylate] |  |  |  | obviously longer | ≥ 5 |  |
| NC(=O)c1cccc2sc(C(F)(F)F)cc12 [Compound 3, 2-trifluoromethylbenzo[b]thiophene-4-carboxamide] | obviously longer |  | ≥ 5 |  |  |  |
| NC(=O)c1csc2cc(C(F)(F)F)ccc12 [Compound 30] | obviously longer | obviously longer | ≥ 5 | obviously longer | ≥ 5 | ≥ 5 |
| O=C(O)c1cccc2sc(C(F)(F)F)cc12 [Compound 1, 2-trifluoromethylbenzo[b]thiophene-4-carboxylic acid] | obviously longer |  |  |  |  |  |
| COC(=O)c1cccc2ccsc12 [Compound 8, methyl benzo[b]thiophene-7-carboxylate] |  | obviously longer |  |  |  | ≥ 5 |
| COC(=O)c1c(C(F)(F)F)sc2c(C(=O)OC)cccc12 [Compound 18, dimethyl 2-trifluoromethylbenzo[b]thiophene-3,7-dicarboxylate] |  |  |  | obviously longer |  |  |
| O=C(Nc1ccccc1)c1c(C(F)(F)F)sc2ccccc12 [Compound 25] |  | obviously longer |  |  | ≥ 5 | ≥ 5 |
| NC(=O)c1c(C(F)(F)F)sc2ccccc12 [Compound 23] |  |  |  | obviously longer | ≥ 5 | ≥ 5 |
| O=C(O)c1c(C(F)(F)F)sc2ccccc12 [Compound 15, 2-trifluoromethylbenzo[b]thiophene-3-carboxylic acid] | obviously longer |  |  |  |  | ≥ 5 |
| O=C(NCc1ccccc1)c1csc2c(C(F)(F)F)cccc12 [Compound 40] |  | obviously longer |  | obviously longer | ≥ 5 |  |
| O=C(O)c1csc2c(C(F)(F)F)cccc12 [Compound 34] | obviously longer | obviously longer | ≥ 5 |  | ≥ 5 | ≥ 5 |
| COC(=O)c1csc2cc(C(F)(F)F)ccc12 [Compound 28] | obviously longer | obviously longer | ≥ 5 | obviously longer | ≥ 5 | ≥ 5 |
| O=C(O)c1csc2cc(C(F)(F)F)ccc12 [Compound 27] | obviously longer | obviously longer |  |  |  |  |
| NC(=O)c1c(C(F)(F)F)sc2ccccc12 [Compound 17, 2-trifluoromethylbenzo[b]thiophene-3-carboxamide] |  | obviously longer |  |  |  |  |
